Data from patent US20060142382A1, “Skin lightening composition” (priority 2002, published 2006).

Test system: Kwl:A-1 brown guinea pigs
Assay: Pigmentation inhibitory effect: UVB-induced pigmentation in brown guinea pigs, L value (lightness) by color-difference meter
Type: in vivo, guinea pig
Conditions: 10 ml/kg; for Final day of the test L value: L value (lightness) of the irradiated site on final day (14 days), oral, twice a day, UVB on day 0, 2nd and 4th days; for ΔL value: L value on the observation day minus L value before irradiation, final day (14 days), oral twice a day, larger ΔL values show higher effect
Description: Ultraviolet ray (UVB) irradiation time was examined using two female 6-week-old Kwl:A-1 brown guinea pigs (SPF). That is, one of the guinea pigs was fixed on the abdominal position, and three 2 cm×2 cm square ultraviolet ray irradiating sites were arranged in bilateral symmetry with the dorsal midline between, thus six sites in total. By shading the body except for the ultraviolet ray irradiating sites, an ultraviolet ray (UVB) was irradiated from a distance of 40 cm using five SE lamps (wavelength 250 to 350 nm, F[…]-E, manufactured by TOSHIBA). […] Examination was made by using five female 7-week-old Kwl:A-1 brown guinea pigs (SPF) in one group. That is, each of the guinea pigs was fixed on the abdominal position using a fixation plate on the respective ultraviolet ray irradiating days (on the day of the commencement of sample administration and on the 2nd and 4th days thereafter). One 2 cm×2 cm square arranged on the left or right side with the guinea pig dorsal midline between was used as the ultraviolet ray irradiating site, and the body was shaded except for the ultraviolet ray irradiating site. Two guinea pigs in one group were irradiated with an ultraviolet ray (LTVB) for 11 minutes and 30 seconds, and three guinea pigs in one group, from a distance of 40 cm using five SE lamps (wavelength 250 to 350 nm, F[…]·E, manufactured by TOSHIBA). During the testing period (14 days), each test sample was orally administered twice a day. Each sample solution was administered at a dose of 10 ml/kg. In this case, the administration was carried out after the ultraviolet ray irradiation on each ultraviolet ray irradiation day, or after the judgment on each pigmentation judging day. Before the irradiation on the day of the commencement of test sample administration and on the final day of the test, a ΔL value (L value on the observation day-L value before irradiation) was calculated by measuring L value (lightness) of the irradiated site using a color-difference meter (CR-300, manufactured by MINOLTA CAMERA).

| SMILES | Final day of the test L value | ΔL value |
| --- | --- | --- |
| O=C1O[C@H]([C@@H](O)CO)C(O)=C1O [Sample (4), ascorbic acid] | 57.35 ± 1.56 | −4.76 ± 1.62 |
| NC[C@H]1CC[C@H](C(=O)O)CC1 [Sample (2), tranexamic acid] | 58.30 ± 1.20 | −3.76 ± 1.78 |
| N[C@@H](CS)C(=O)O [Sample (3), L-cysteine] | 59.52 ± 3.10 | −3.32 ± 1.70 |
